Experimental findings from patent publication US5169841A, “Renin inhibitors” (Hoechst Aktiengesellschaft, priority 1987, dated 1992) are described below.

The assay addresses T1, human plasma renin (Homo sapiens, UniProt P00797).
T1 construct: from tissue; host or cells: human EDTA plasma from volunteer subjects
T1 sequence (P00797 67-406): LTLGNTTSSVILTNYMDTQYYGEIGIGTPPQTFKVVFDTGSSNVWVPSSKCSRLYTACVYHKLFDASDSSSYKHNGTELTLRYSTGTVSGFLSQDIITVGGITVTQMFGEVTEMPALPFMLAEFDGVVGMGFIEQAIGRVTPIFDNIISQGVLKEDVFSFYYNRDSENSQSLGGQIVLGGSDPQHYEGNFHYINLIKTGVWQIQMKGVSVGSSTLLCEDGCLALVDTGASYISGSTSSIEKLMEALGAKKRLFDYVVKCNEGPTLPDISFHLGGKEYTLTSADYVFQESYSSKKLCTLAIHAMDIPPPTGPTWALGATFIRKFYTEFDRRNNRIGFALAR
Kind of assay: Inhibition of angiotensin I formation in human plasma (Renin-Maia radioimmunoassay). The format is biochemical. The settings on record: 37° C., 1 hour, % residual plasma renin activity by angiotensin I RIA. As to the method: The activity of renin inhibitors can be checked by in vitro tests. These entail the decrease in the formation of angiotensin I being measured in various systems (human plasma, purified human renin).
For example human plasma which contains both renin and angiotensinogen is incubated at 37° C. with the compound to be tested. During this, angiotensin I is liberated from angiotensinogen under the action of renin and can subsequently be measured using a commercially available radioimmunoassay. This liberation of angiotensin is inhibited by renin inhibitors.
The blood is obtained from volunteer subjects (about 0.5 litre per person; Bluko sampler from ASID Bonz and Sohn, Unterschleissheim) and is collected in partially evacuated bottles while cooling in ice. Coagulation is prevented by addition of EDTA (final concentration 10 mM). After centrifugation, (HS 4 Rotor (Sorvall), 3500 rpm, 0°-4° C., 15 min; repeat if necessary), the plasma is carefully removed with a pipette and frozen in suitable portions at -30° C. Only plasma with sufficiently high renin activity are used for the test. Plasma with low renin activity are activated by cold treatment (-4° C., 3 days (prorenin→renin).
Angiotensin I is determined using the Renin-Maia® Kit (Serono Diagnostics S. A., Coinsins, Switzerland). The plasma is incubated in accordance with the instructions given therein:
1000 μl of plasma (defrozen at 0-4° C.)
100 μl of phosphate buffer (ph 7.4)
10 μl of 0.1% Genapol PFIC
12 μl of DMSO or test product
The test products are generally dissolved 10^-2 M in 100% dimethylsulfoxide (DMSO) and diluted appropriately with DMSO; the incubation mixture contains not more than 1% DMSO.
The mixtures are mixed up in ice and placed in a water bath (37° C.) for 1 hour for the incubation. 6 samples in total (each of 100 μl) are taken from an additional mixture without inhibitor and without further incubation for the determination of the initial angiotensin I content of the plasma used.
The concentrations of the test products are selected such that the 10-90% range of enzyme inhibition is approximately covered (at least five concentrations). At the end of the incubation time, three 100 μl samples from each mixture are frozen in precooled Eppendorf tubes on dry ice and stored at about -25° C. for the determination of angiotensin I (means from three individual samples).
The instructions for use of the RIA Kit (Rennin-Maia® Kit, Serono Diagnostics S. A., Coinsins, Switzerland) are followed exactly.
The calibration plot embraces the range from 0.2 to 25.0 ng of angiotensin I per ml. The basic angiotensin I content of the plasma is subtracted from all the measured values. The plasma renin activity (PRA) is reported as ng of Ang I/ml x hour. PRA values in the presence of the test substances are related to a mixture without inhibitor (=100%) and reported as % residual activity. The IC50 value is read off from the plot of % residual activity against the concentration (M) of the test product (logarithmic scale).
Turning to `CC(C)CC(=O)N[C@@H](Cc1ccccc1)C(=O)N[C@@H](Cc1c[nH]cn1)C(=O)NC(CC1CCCCCCC1)B1OC(C)(C)C(C)(C)O1` (stereo partly drawn) [Example 18, Iva-Phe-His-[cycloctylmethyl,(4,4,5,5-tetramethyl-1,3,2-dioxaborolane-2-yl)]methylamide], half-maximal inhibition (IC50) required 9000 nM. In turn, `CCC[C@H](NC(=O)C(Cc1ccccc1)CS(=O)(=O)C(C)(C)C)C(=O)NC(CC1CCCCC1)B1OC(C)(C)C(C)(C)O1` (some centres unmarked) [Example 36, (2-Benzyl,3-t-butylsulfonyl)propionyl-Nva-[cyclohexylmethyl,(4,4,5,5-tetramethyl-1,3,2-dioxaborolane-2-yl)]methylamide] had an IC50 of 620 nM. The same measure for `CC1(C)OB(C(CC2CCCCCC2)NC(=O)[C@H](Cc2cccs2)NC(=O)C(Cc2cccs2)CS(=O)(=O)C(C)(C)C)OC1(C)C` (some centres unmarked) [Example 40, [3-t-Butylsulfonyl,2-(2-thienylmethyl)]propionyl-thi[cycloheptylmethyl,(4,4,5,5-tetramethyl-1,3,2-dioxaborolane-2-yl)]methylamide]: 3600 nM; for `CCC[C@H](NC(=O)C(Cc1ccccc1)CS(=O)(=O)C(C)(C)C)C(=O)NC(CC(CC)CC)B1OC(C)(C)C(C)(C)O1` (some centres unmarked) [Example 52, (2-Benzyl,3-t-butylsulfonyl)propionyl-Nvu-[3-ethyl,1-(4,4,5,5-tetramethyl-1,3,2-dioxaborolane-2-yl)]pentylamide]: 2800 nM; for `CC1(C)OB(C(CC2CCCCC2)NC(=O)[C@H](CC(N)=O)NC(=O)C(Cc2cccs2)CS(=O)(=O)C(C)(C)C)OC1(C)C` (some centres unmarked) [Example 54, (3-t-Butylsulfonyl,2-(2-thienylmethyl)]propionyl-Asn-[cyclohexylmethyl,(4,4,5,5-tetramethyl-1,3,2-dioxaborolane-2-yl)]methylamide]: 900 nM. The figure for `CCC[C@H](NC(=O)[C@H](Cc1ccccc1)NC(=O)CC(C)C)C(=O)NC(CC1CCCCC1)B1OC(C)(C)C(C)(C)O1` (stereo partly drawn) [Example 1, Iva-Phe-Nva-[cyclohexylmethyl,(4,4,5,5-tetramethyl-1,3,2-dioxaborolane-2-yl)]methylamide] is 420 nM; for `CCC[C@H](NC(=O)C(Cc1cccc2ccccc12)CS(=O)(=O)C(C)(C)C)C(=O)NC(CC(CC)CC)B1OC(C)(C)C(C)(C)O1` (some centres unmarked) [Example 51, [3-t-Butylsulfonyl,2-(1-naphthylmethyl)]propionyl-Nva-[3-ethyl,1-(4,4,5,5-tetramethyl-1,3,2-dioxaborolane-2-yl)]-pentylamide] it is 1800 nM. The figure for `CCC[C@H](NC(=O)[C@H](Cc1ccccc1)NC(=O)CC(C)C)C(=O)NC(CC1CCCCCC1)B1OC(C)(C)C(C)(C)O1` (some centres unmarked) [Example 16] is 3000 nM.

The molecule `CC(C)[C@H](NC(=O)C(Cc1ccccc1)CS(=O)(=O)C(C)(C)C)C(=O)NC(CC1CCCCC1)B1OC(C)(C)C(C)(C)O1` (some centres unmarked) [Example 39, (2-Benzyl,3-t-butylsulfonyl)propionyl-Val-[cyclohexylmethyl,(4,4,5,5-tetramethyl-1,3,2-dioxaborolane-2yl)]-methylamide] came in with an IC50 of 2100 nM. This IC50 and that of the molecule before are within 1.5-fold of each other.

With `CCC[C@H](NC(=O)[C@H](Cc1ccccc1)NC(=O)CC(C)C)C(=O)NC(CC1CCC(C)CC1)B1OC(C)(C)C(C)(C)O1` (stereo partly drawn) [Example 15, Iva-Phe-Nva-[(4-methylcyclohexyl)methyl,(4,4,5,5-tetramethyl-1,3,2-dioxaborolane-2-yl)]methylamide], the IC50 amounted to 2800 nM. The figure for `CCC[C@H](NC(=O)[C@H](Cc1ccccc1)NC(=O)CC(C)C)C(=O)NC(CC1CCCCC1)B(O)O` (stereo partly drawn) [Example 5, Iva-Phe-Nva-(cyclohexylmethyl,dihydroxyboryl)methylamide] is 550 nM; for `CC(C)CC(=O)N[C@@H](Cc1ccccc1)C(=O)N[C@@H](Cc1c[nH]cn1)C(=O)NC(CC1CCCCCC1)B1OC(C)(C)C(C)(C)O1` (stereo partly drawn) [Example 19, Iva-Phe-His-[cycloheptylmethyl,(4,4,5,5-tetramethyl-1,3,2-dioxaborolane-2-yl)]methylamide] it is 8000 nM.

The molecule `CC(C)CC(=O)N[C@@H](Cc1ccccc1)C(=O)N[C@@H](Cc1c[nH]cn1)C(=O)NC(CC1CCCCC1)B1OC(C)(C)C(C)(C)O1` (stereo partly drawn) [Example 3, Iva-Phe-His-[cyclohexylmethyl,(4,4,5,5-tetramethyl-1,3,2-dioxaborolane-2-yl)]methylamide] registered an IC50 of 2000 nM. The figure for `CC(C)CC(=O)N[C@@H](Cc1ccccc1)C(=O)N[C@@H](Cc1cccs1)C(=O)NC(CC1CCCCC1)B1OC(C)(C)C(C)(C)O1` (stereo partly drawn) [Example 7, Iva-Phe-Thi-[cyclohexylmethyl,(4,4,5,5-tetramethyl-1,3,2-dioxaborolane-2-yl)]methylamide] is 670 nM. The same measure for `CCC[C@H](NC(=O)C(Cc1ccccc1)CS(=O)(=O)C(C)(C)C)C(=O)NC(CC1CCCC1)B1OC(C)(C)C(C)(C)O1` (some centres unmarked) [Example 44, (2-Benzyl,3-t-butylsulfonyl)propionyl-Nva-[cyclopentylmethyl,(4,4,5,5-tetramethyl-1,3,2-dioxaborolane-2-yl)]-methylamide]: 2400 nM; for `CC1(C)OB(C(CC2CCCCC2)NC(=O)[C@H](Cc2cccs2)NC(=O)C(Cc2cccs2)CS(=O)(=O)C(C)(C)C)OC1(C)C` (some centres unmarked) [Example 43, [3-t-Butylsulfonyl,2-(2-thienylmethyl)]propionyl-Thi-[cyclohexylmethyl,(4,4,5,5-tetramethyl-1,3,2-dioxaborolane-2-yl)]methylamide]: 550 nM.

The molecule `CC(C)CC(=O)N[C@@H](Cc1cccs1)C(=O)N[C@@H](Cc1c[nH]cn1)C(=O)NC(CC1CCCCC1)B1OC(C)(C)C(C)(C)O1` (stereo partly drawn) [Example 4, Iva-Thi-His-[cyclohexylmethyl,(4,4,5,5-tetramethyl-1,3,2-dioxaborolane-2-yl)]methylamide] showed an IC50 of 450 nM. The same measure for `CCC[C@H](NC(=O)C(Cc1cccs1)CS(=O)(=O)C(C)(C)C)C(=O)NC(CC1CCCCCC1)B1OC(C)(C)C(C)(C)O1` (some centres unmarked) [Example 41, [3-t-Butylsulfonyl,2-(2-thienylmethyl)]propionyl-Nva-[cycloheptylmethyl,(4,4,5,5-tetramethyl-1,3,2-dioxaborolane-2-yl)]methylamide]: 1500 nM; for `CCC[C@H](NC(=O)[C@H](Cc1ccccc1)NC(=O)CC(C)C)C(=O)NC(CC1CCCCC1)B1OC2CC3CC(C3(C)C)C2(C)O1` (single isomer, unassigned) [Example 13, Iva-Phe-Nva-[cyclohexylmethyl, (-)-pinanedioxyboryl]-methylamide]: 2400 nM.

`CCCC[C@H](NC(=O)[C@H](Cc1ccccc1)NC(=O)CC(C)C)C(=O)NC(CC1CCCCC1)B1OC(C)(C)C(C)(C)O1` (stereo partly drawn) [Example 2, Iva-Phe-Nle-[cyclohexylmethyl,(4,4,5,5-tetramethyl-1,3,2-dioxaborolane-2-yl)]methylamide] registered an IC50 of 1000 nM. The same measure for `CCC[C@H](NC(=O)C(Cc1cccc2ccccc12)CS(=O)(=O)C(C)(C)C)C(=O)NC(CC1CCCC1)B1OC(C)(C)C(C)(C)O1` (some centres unmarked) [Example 50]: 1500 nM; for `CCC[C@H](NC(=O)C(Cc1cccc2ccccc12)CS(=O)(=O)C(C)(C)C)C(=O)NC(CC(C)C)B1OC(C)(C)C(C)(C)O1` (some centres unmarked) [Example 42, [3-t-Butylsulfonyl,2-(1-naphthylmethyl)]propionyl-Nva-[3-methyl,1-(4,4,5,5-tetramethyl-1,3,2-dioxaborolane-2-yl)]butylamide]: 950 nM; for `CCC[C@H](NC(=O)C(Cc1cccs1)CS(=O)(=O)C(C)(C)C)C(=O)NC(CC1CCCCC1)B1OC(C)(C)C(C)(C)O1` (some centres unmarked) [Example 35, [3-t-Butylsulfonyl,2-(2-thienylmethyl)]propionyl-Nva-[cyclohexylmethyl,(4,4,5,5-tetramethyl-1,3,2-dioxaborolane-2-yl)]methylamide]: 280 nM.
